Laboratory results from patent US20070203215A1, “Methods & Compositions For Enhancing Pharmaceutical Treatments” (Taiji Biomedical, Inc., priority 1999, published 2007).
Where two headings read alike, the source gives them in different places.

Tests used:
CYP2C8 = CYP2C8 (Homo sapiens, UniProt P10632); assay: Metabolism by P450 CYP2C8; assay type: in vitro ADME
Description: (§1) Two enzymes primarily responsible for metabolism of paclitaxel are P450 CYP3A4 and CYP2C8. Some P-gp inhibitors are also metabolized by P450 CYP 3A4, leading to inhibition of paclitaxel metabolism. This may contribute to PK interactions with paclitaxel.

MDA/LCC6^MDR1 = assay: Reversal of MDR in P-gp-expressing cell line; assay type: cell-based, human; settings: for EC50: Homo sapiens, MDA/LCC6^MDR1 breast
Procedure: (§2) Cell proliferation IC50s and MDR reversal EC50s were determined from 3-day dose-response curves carried out in triplicate in 96-well plates essentially as described by Monks et al. (J. Natl. Cancer Inst., 83:757-66, 1991). Cells were plated in standard growth medium at 2.5 or 5.0×10^4 per well (CCRF-CEM and CEM/VLB1000 respectively) or 5×10^3 per well (all other cell lines) in a final volume of 100 μl. After a 2 h incubation for non-adherent cells and overnight incubation for adherent cells, the initial cell density was determined by fluorescence readout of Alamar Blue metabolism. The compound of Formula 2, cytotoxic agents, or compound vehicles were added to duplicate plates and the incubation was continued for an additional 72 h. Final cell density was determined with Alamar Blue. In some experiments, a standard endpoint assay was used without analysis of initial cell density with Alamar Blue. Similar results were obtained with the two assays. EC50s were derived by nonlinear regression analysis assuming a sigmoidal dose-response using GraphPad Prism Software (San Diego, Calif.). Proliferation assays capable of measuring both cytostatic and cytotoxic responses were carried out as described herein with 15 non-transformed and transformed cell lines, including primary fibroblasts, non-transformed smooth muscle, leukemia, breast, colon, ovarian and uterine carcinoma cells (±P-gp expression). Although the compound of Formula 2 reversed P-gp-mediated MDR in the low nanomolar concentration range, the compound was non-cytotoxic by itself at doses up to 100 μM in all cell lines. […] IC50s for non-specific cytotoxicity were similar in matched cell lines plus and minus P-gp expression. […] If it were, some consistent degree of resistance would be expected in P-gp expressing cells.

[1] = system: P-gp-expressing Cell Lines; assay: Modulation of P-gp-mediated drug resistance in vitro (panel statements); assay type: cell-based, human
Procedure: (§3) The compound of Formula 2 was able to reverse resistance to all classes of P-gp substrates in a wide variety of tumor cell types with EC50s in the low nM range (Table 2). Similar results were obtained with etoposide in several models. Complete reversal of MDR was typically seen with Formula 2 doses between 0.25 and 1.0 μM. Examples with cells expressing extremely high levels of P-gp as a result of drug selection (CEM/VLB1000), moderate levels of P-gp from gene transduction (MDA/LCC6 ^MDR1), and low (intrinsic) levels of P-gp (HCT-15) are illustrated in Table 2. The compound of Formula 2 had no effect on doxorubicin or paclitaxel IC50s in non-P-gp-expressing CCRF-CEM and MDA/LCC6 cells, respectively (FIG. 1, for MDA/LCC6 cells).
(§4) Cell proliferation IC50s and MDR reversal EC50s were determined from 3-day dose-response curves carried out in triplicate in 96-well plates essentially as described by Monks et al. (J. Natl. Cancer Inst., 83:757-66, 1991). Cells were plated in standard growth medium at 2.5 or 5.0×10^4 per well (CCRF-CEM and CEM/VLB1000 respectively) or 5×10^3 per well (all other cell lines) in a final volume of 100 μl. After a 2 h incubation for non-adherent cells and overnight incubation for adherent cells, the initial cell density was determined by fluorescence readout of Alamar Blue metabolism. […] Final cell density was determined with Alamar Blue. […]

human CYP3A4 = human CYP3A4 (Homo sapiens, UniProt P08684); assay: Inhibition of CYP3A4-mediated paclitaxel metabolism; assay type: in vitro ADME
Sequence of human CYP3A4 (P08684 whole entry): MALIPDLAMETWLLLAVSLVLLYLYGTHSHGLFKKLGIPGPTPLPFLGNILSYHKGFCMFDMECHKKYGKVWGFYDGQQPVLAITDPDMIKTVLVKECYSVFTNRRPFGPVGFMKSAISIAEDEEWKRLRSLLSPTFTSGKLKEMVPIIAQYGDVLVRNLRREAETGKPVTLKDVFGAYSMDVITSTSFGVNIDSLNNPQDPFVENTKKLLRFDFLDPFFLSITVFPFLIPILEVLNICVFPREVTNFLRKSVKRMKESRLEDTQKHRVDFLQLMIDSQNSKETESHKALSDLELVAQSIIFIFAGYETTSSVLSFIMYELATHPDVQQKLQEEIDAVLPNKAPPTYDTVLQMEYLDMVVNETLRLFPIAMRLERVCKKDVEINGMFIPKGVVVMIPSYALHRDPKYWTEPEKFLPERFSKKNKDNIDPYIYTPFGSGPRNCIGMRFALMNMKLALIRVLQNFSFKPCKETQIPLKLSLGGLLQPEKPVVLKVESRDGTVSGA
Description: as §1

[2] = Saquinavir in rat cerebrospinal fluid and brain after oral ONT-093 or vehicle; assay type: in vivo, Sprague Dawley rats; settings: Group 3: after OC-144-093 20 mg/kg p.o.; 30 min after saquinavir dose; individual animals 3001-3004; 20 mg/kg
Procedure: Blood samples (ca 0.3 mL) were collected from 8 selected rats by jugular venipuncture during slight anesthesia pre-dose and at 0.25, 0.5, 1, 2, 4 and 8 post-dose (saquinavir dose). Cerebrospinal fluid (CSF) and brain tissue were collected terminally from the remaining 8 rats at ca 30 min following administration of the dose of saquinavir. Blood samples were collected into tubes containing EDTA and placed on wet ice pending centrifugation. Plasma, CSF and brain tissue samples were stored at ca −80° C. until analysis of saquinavir by LC/MS. The vehicle used was polyethylene glycol (PEG-400)1 Tween 20 (9:1; v:v).
A total of 16 male Sprague Dawley rats were received from Charles River Canada (Saint-Constant, Quebec). Animals were approximately 9 weeks of age at arrival and weighed ca 312-340 g. Four males were randomly assigned to each of Groups 1, 2, 3 and 4. On the day of dosing and following an overnight fast, animals were weighed (ca 305-323 g) and were administered their respective combination of doses. Animals of Groups 1 and 3 received a single oral dose of ONT-093 (20 mg/kg) by gavage at a dose volume of 2 mL/kg. Animals of Groups 2 and 4 received a single oral dose of the vehicle by gavage at a dose volume of 2 mL/kg. Approximately 30 min following administration of either ONT-093 or the vehicle, all animals received a single oral dose of saquinavir (20 mg/kg) by gavage at a dose volume of 1 mL/kg.
Following administration of saquinavir, blood samples (ca 0.3 mL in EDTA) were obtained from all rats of Groups 1 and 2 by jugular venipuncture during anesthesia with isoflurane (Ohmeda Pharmaceutical Products) at each of the following time-points: pre-dose (prior to administration of ONT-093 or vehicle) and 0.25, 0.5, 1, 2, 4 and 8 hr post-dose. Following administration of saquinavir, CSF was obtained from all animals of Groups 3 and 4 at 30 min following dose administration. CSF was collected (in tubes containing no anticoagulant) from the cistema magna during anesthesia with isoflurane. Following CSF collection, the animals were sacrificed by exsanguination via puncture of the vena cava and the brain was harvested from all these rats. Immediately following collection, all samples (blood, CSF and brain) were placed on ice until further processing or storage. Blood samples were centrifuged (ca 3080 g at ca 4° C. for 10 min) and the resulting plasma samples were stored at ca −80° C. pending analysis. CSF samples and brains were stored at ca −80° C. pending analysis.
Plasma samples, CSF samples and brains were analyzed for unchanged saquinavir using an LC/MS assay. Pharmacokinetic analysis was performed on plasma concentrations using the PhAST Software Program, Version 2.2-00 (Phoenix International Life Sciences Inc.). The highest observable concentration was assumed to be the peak concentration (Cmax); Time to Cmax was denoted Tmax. The area under the plasma concentration versus time-curve from time zero to the last measurable concentration [AUC(tf] was calculated by the linear trapezoidal method. Where applicable, numerical values were subjected to calculation of group means and % CV. Student-T-test with Satterthwaite approximation was performed on AUC and Cmax values to compare ONT-093 treated animals versus vehicle treated animals using SAS software program, Version 6.12 (SAS Institute Inc., Gary, N.C.). Where values were below limit of quantification, zero was used for pharmacokinetic analysis. The bioavailability (F) of saquinavir when administered with ONT-093 was calculated relative to the AUC values obtained from the animals receiving saquinavir following administration of the vehicle.

[3] = mouse, in vivo
Procedure: Non-tumor bearing athymic mice were treated with the compound of Formula 2 and (or) paclitaxel as described.

MDA/LCC6 cells = assay: Effect on paclitaxel IC50 in non-P-gp-expressing cells; assay type: cell-based, human; settings: breast carcinoma cells that do not express P-gp, FIG. 1
Procedure: as §3, §4

tumor-bearing mice = settings: 20 mg/kg paclitaxel with the compound of Formula 2
[4] = system: 15 non-transformed and transformed cell lines; assay: Proliferation assays, 15 non-transformed and transformed cell lines (panel statements); assay type: cell-based, human; settings: for IC50: Homo sapiens, 15 cell lines
Procedure: as §2

Sequence of CYP2C8 (P10632 whole entry): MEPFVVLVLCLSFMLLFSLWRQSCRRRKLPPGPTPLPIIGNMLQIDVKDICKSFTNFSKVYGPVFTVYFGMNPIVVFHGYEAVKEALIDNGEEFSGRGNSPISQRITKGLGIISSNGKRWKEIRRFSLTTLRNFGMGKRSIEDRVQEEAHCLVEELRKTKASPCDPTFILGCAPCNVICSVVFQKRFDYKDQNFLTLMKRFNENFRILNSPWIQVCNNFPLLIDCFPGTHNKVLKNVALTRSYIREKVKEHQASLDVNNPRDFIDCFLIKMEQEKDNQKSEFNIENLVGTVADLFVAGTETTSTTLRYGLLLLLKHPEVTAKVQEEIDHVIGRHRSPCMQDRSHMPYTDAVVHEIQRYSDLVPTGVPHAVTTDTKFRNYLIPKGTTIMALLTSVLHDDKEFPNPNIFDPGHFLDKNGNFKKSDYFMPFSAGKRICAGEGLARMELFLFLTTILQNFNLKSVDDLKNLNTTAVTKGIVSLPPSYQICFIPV

SMILES: CCOC/C=C/c1ccc(-c2nc(-c3ccc(NC(C)C)cc3)c(-c3ccc(NC(C)C)cc3)[nH]2)cc1 [Formula 2 compound]
- Metabolism by P450 CYP2C8 (CYP2C8): not metabolized
- Resistance to paclitaxel treatment in vitro (MDA/LCC6^MDR1; FIG. 1): reversed
- EC50 (MDA/LCC6^MDR1; read-out: Formula 2 compound EC50, reversal of Doxorubicin resistance): 0.013 µM
- EC50 (MDA/LCC6^MDR1; read-out: Formula 2 compound EC50, reversal of Paclitaxel resistance): 0.009 µM
- MDR reversal potency after incubation in human plasma ([1]; human plasma): retained full MDR reversal potency
- EC50s for reversal of resistance to all classes of P-gp substrates ([1]; wide variety of tumor cell types): low nM range
- Ki (human CYP3A4): 39.8 ± 5.1 µM
- Ki (CYP3A4) relative to EC50s for reversal of MDR (human CYP3A4; higher): approximately 1000 fold
- Saquinavir Concentration in CSF [2]: BLQ
- Effect on paclitaxel toxicity [3]: decreased paclitaxel toxicity
- In vitro anti-tumor activity of paclitaxel (MDA/LCC6 cells): did not enhance
- Tumor formation (tumor-bearing mice): completely prevented tumor formation at several injection sites
- IC50 ([4]; read-out: Cytostatic IC50, average value): 60 µM
- IC50 ([4]; read-out: Cytostatic IC50s, range over cell lines): 6 to 170 µM
- Cytotoxicity by itself ([4]; at doses up to 100 μM, all cell lines): non-cytotoxic
